Test results: publication PMC7044277 (Nature Communications, 2020)
Where “and” joins values, the source holds several entries; their conditions need not be identical. Identical values can stand only once.

Key:
Type in all cases: cell-based
Set-up in all cases: GPCRome screening signal at PTGIR / GPCRome screening signal at PTH1R / GPCRome screening signal at PTH2R / GPCRome screening signal at QRFP / GPCRome screening signal at RXFP2 / GPCRome screening signal at RXFP3 / GPCRome screening signal at RXFP4 / GPCRome screening signal at S1PR2 / GPCRome screening signal at S1PR3 / GPCRome screening signal at S1PR4 / GPCRome screening signal at S1PR5 / GPCRome screening signal at SCTR / GPCRome screening signal at SSTR2 / GPCRome screening signal at SSSTR / GPCRome screening signal at SSTR4 / GPCRome screening signal at SSTR5 / GPCRome screening signal at SUCNR1 / GPCRome screening signal at TA1 / GPCRome screening signal at TAAR2 / GPCRome screening signal at TAAR5 / GPCRome screening signal at TAAR6 / GPCRome screening signal at TAAR8 / GPCRome screening signal at TACR1 / GPCRome screening signal at TACR2 / GPCRome screening signal at TACR3 / GPCRome screening signal at TBXA2R / GPCRome screening signal at TSHR / GPCRome screening signal at UTS2R / GPCRome screening signal at VIPR2 / GPCRome screening signal at GPR68 no V2 Tail / GPCRome screening signal at GRM2 / GPCRome screening signal at GRM3: reference not given here
[1] = target: T1, 320 non-olfactory GPCRs (Homo sapiens, UniProt O95136); conditions: receptor S1PR2
T1 construct: expressed in transfected cells; host or cells: HTLA cells

[2] = target: T2, 320 non-olfactory GPCRs (Homo sapiens, UniProt P32241); conditions: receptor VIPR1
T2 construct: expressed in transfected cells; host or cells: HTLA cells

[3] = target: T3, 320 non-olfactory GPCRs (Homo sapiens, UniProt Q8WXD0); conditions: receptor RXFP2
T3 construct: expressed in transfected cells; host or cells: HTLA cells

[4] = target: T4, 320 non-olfactory GPCRs (Homo sapiens, UniProt Q9NSD7); conditions: receptor RXFP3
T4 construct: expressed in transfected cells; host or cells: HTLA cells

[5] = Fig_5f, single replicate values
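Wherever GPCRome agonism screen response is given: fold over basal response of each receptor without drug.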

T4 sequence (Q9NSD7 whole entry): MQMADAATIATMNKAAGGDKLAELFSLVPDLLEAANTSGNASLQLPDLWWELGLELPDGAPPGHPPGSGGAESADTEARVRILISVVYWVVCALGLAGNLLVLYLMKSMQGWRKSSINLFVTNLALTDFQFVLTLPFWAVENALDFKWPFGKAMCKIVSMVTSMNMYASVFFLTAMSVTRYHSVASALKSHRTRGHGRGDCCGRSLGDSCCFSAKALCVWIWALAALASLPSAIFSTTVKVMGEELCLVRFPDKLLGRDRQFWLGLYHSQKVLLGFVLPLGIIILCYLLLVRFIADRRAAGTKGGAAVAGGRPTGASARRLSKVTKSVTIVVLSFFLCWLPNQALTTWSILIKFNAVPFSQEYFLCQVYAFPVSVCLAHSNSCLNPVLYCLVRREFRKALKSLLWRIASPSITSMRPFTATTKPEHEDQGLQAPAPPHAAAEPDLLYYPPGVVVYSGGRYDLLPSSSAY
T3 sequence (Q8WXD0 whole entry): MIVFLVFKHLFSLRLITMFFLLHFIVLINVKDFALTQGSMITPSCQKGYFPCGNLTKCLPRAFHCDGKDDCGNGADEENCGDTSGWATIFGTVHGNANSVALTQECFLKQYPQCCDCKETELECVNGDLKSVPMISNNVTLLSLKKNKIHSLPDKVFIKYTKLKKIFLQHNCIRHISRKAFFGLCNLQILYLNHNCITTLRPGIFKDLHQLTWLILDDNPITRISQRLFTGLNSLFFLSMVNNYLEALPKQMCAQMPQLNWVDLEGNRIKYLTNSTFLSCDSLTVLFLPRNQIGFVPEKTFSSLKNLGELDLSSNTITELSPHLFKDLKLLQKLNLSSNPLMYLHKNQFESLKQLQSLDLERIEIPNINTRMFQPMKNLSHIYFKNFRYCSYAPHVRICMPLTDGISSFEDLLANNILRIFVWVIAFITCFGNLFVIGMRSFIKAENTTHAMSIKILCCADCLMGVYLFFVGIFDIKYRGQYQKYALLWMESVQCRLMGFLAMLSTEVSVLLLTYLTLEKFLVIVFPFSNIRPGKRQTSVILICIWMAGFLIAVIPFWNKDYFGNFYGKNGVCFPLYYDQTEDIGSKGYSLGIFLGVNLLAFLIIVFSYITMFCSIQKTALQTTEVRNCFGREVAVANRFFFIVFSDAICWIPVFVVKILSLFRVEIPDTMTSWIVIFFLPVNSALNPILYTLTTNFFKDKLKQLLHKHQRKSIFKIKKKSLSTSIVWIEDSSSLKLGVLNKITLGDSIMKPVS
T1 sequence (O95136 whole entry): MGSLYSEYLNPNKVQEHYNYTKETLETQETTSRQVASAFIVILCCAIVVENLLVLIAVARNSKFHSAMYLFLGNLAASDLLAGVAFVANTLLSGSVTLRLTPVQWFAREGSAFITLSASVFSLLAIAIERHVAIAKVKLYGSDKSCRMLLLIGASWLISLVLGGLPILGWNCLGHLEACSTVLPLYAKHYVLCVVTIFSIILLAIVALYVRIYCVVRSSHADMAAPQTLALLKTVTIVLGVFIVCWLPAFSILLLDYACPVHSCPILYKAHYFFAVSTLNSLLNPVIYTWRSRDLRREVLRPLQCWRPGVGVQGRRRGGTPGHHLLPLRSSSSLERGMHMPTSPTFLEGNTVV
T2 sequence (P32241 31-457): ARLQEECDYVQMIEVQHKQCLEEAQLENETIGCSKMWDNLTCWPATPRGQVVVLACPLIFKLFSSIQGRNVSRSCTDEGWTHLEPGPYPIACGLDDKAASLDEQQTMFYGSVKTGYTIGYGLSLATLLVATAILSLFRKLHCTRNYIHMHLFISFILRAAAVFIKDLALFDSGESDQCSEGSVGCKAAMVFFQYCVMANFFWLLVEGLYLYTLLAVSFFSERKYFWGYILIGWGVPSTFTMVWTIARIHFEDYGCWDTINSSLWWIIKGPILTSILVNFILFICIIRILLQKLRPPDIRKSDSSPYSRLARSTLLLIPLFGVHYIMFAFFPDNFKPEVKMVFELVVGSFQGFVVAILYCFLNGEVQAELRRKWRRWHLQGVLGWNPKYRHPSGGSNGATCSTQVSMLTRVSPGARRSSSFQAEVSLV

GPCRome screening signal at S1PR2 [1, 5] | GPCRome screening signal at VIPR1 [2, 5] | GPCRome screening signal at RXFP2 [3, 5] | GPCRome screening signal at RXFP3 [4, 5] | SMILES | GPCRome agonism screen response ([1]; replicate values, Fig_4g) | GPCRome agonism screen response ([2]; replicate values, Fig_4g) | GPCRome agonism screen response ([3]; replicate values, Fig_4g) | GPCRome agonism screen response ([4]; replicate values, Fig_4g)
2.447 and 1.17 and 1.142 and 1.029 | 1.328 and 1.861 and 1.314 and 1.467 | 1.049 and 1.08 and 1.42 and 0.7752 | 0.4184 and 0.8431 and 0.6194 and 0.3935 | CCOc1ccccc1CCC(C)NCC1(O)CCCCC1.Cl (racemic) [Fig_5f] | – | – | – | –
– | – | – | – | CCOc1cccc2cc(C(C)NCC3(O)CCCCC3)oc12 (centres unmarked) [O4LE6] | 2.111 and 0.9213 and 3.313 and 1.2731 | 0.8893 and 1.908 and 1.195 and 1.527 | 0.9912 and 0.8618 and 0.6803 and 0.6522 | 0.4551 and 0.2696 and 0.704 and 0.4767
